Laboratory results: patent US12128035B2, “Activating pyruvate kinase R” (Novo Nordisk Health Care AG, priority 2021, dated 2024)
“And” between values parts separate entries of the source, which are not always exact repeats. Identical values can stand only once.

What was measured:
[1] = Phase 1: hematologic and hemolytic laboratory parameters in SCD patients; format: in vivo, human; conditions: SCD single 700 mg dose
[2] = molecular target: T1, PKR in mouse red blood cells (Mus musculus, UniProt P53657); assay: Cell assay: PKR activation in mouse RBCs; format: cell-based
T1 construct: endogenous in cells; host or cells: mouse RBCs freshly isolated from whole blood
T1 sequence (P53657 whole entry): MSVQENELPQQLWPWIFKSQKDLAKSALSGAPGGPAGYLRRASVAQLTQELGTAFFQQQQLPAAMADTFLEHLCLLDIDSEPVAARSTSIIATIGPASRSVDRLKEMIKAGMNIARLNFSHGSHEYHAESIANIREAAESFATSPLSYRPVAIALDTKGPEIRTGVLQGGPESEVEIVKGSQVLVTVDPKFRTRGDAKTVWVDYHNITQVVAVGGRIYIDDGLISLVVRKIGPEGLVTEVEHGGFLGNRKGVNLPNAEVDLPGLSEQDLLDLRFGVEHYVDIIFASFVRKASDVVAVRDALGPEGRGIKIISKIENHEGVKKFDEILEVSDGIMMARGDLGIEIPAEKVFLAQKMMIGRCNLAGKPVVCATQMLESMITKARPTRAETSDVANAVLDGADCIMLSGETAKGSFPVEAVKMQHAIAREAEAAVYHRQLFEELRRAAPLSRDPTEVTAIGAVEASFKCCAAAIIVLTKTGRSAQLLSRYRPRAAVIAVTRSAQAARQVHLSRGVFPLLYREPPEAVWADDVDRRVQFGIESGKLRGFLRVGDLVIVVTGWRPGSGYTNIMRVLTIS
Excerpt: Mouse RBCs were isolated fresh from whole blood using a Ficoll gradient and assayed with methods similar to those used in the human RBCs assays.

Log D7.4 = format: physicochemical; conditions: pH 7.4
Excerpt: [drawing 2] is a selective, orally bioavailable PKR Activating Compound that decreases 2,3-DPG, increases ATP, and has anti-sickling effects in disease models with a wide therapeutic margin relative to preclinical toxicity. Compound 1 is a potent activator of PKR and a multi-modal metabolic modulator of RBCs. Activation of PKR simultaneously reduces 2,3-DPG concentrations, which increases hemoglobin-oxygen affinity and decreases sickling, while also increasing intracellular ATP, which improves RBC health and reduces hemolysis, or RBC death. Compound 1 is a BCS class II compound with poor water solubility and high permeability.

[3] = system: H295R adreno-cortical carcinoma cell line; assay: Cell viability (MTT Kit); format: cell-based
Protocol: To assess potential effects on steroidogenesis, Compound 1 was screened for steroid modulation in vitro using the H295R adreno-cortical carcinoma cell line (at 200 to 0.0002 μM) and in an assay to monitor cell viability (MTT Kit). Compound 1 indicated steroid modulation potential (% over vehicle) only at 200 μM, the top concentration tested, with 100% cellular viability at concentrations ≤20 μM (90% viability at 200 μM).

[4] = molecular target: T2, wt-PKR in mature human erythrocytes (Homo sapiens, UniProt P30613); assay: Cell assay: PKR activation in human RBCs (Biovision Pyruvate Kinase Assay); format: cell-based; conditions: 3 hr treatment
T2 construct: host or cells: purified human RBCs from donors
T2 sequence (P30613 whole entry): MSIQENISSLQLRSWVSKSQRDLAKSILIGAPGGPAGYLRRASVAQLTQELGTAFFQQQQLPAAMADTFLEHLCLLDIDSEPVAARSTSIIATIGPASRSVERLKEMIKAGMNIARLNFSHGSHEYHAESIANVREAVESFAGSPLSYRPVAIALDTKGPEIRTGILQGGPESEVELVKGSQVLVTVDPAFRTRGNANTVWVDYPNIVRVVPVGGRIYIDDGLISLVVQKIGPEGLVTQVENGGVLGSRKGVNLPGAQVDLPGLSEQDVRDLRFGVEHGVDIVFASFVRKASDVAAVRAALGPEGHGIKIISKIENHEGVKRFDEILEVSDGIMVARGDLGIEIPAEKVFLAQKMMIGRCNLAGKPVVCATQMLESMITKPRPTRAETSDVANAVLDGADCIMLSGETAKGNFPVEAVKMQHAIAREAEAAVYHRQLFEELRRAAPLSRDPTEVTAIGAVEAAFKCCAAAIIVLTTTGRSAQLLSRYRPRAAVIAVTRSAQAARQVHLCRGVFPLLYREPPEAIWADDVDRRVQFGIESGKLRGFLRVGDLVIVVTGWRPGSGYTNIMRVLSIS
Protocol: The activation of wt-PKR by Compound 1 in mature human erythrocytes ex vivo was evaluated in purified RBCs purchased from Research Blood Components. Cells treated with Compound 1 for 3 hr in glucose-containing media were washed, lysed, and assayed using a Biovision Pyruvate Kinase Assay (K709-100). The assay was repeated multiple times to account for donor-to-donor variability and the relatively narrow dynamic range.

[5] = Phase 1: hematologic and hemolytic laboratory parameters in SCD patients; format: in vivo, human
Excerpt: Laboratory changes relative to pretreatment for each pt in the MD cohort as of Jul. In 2 of 3 SCD MD-1 pts treated with Compound 1/placebo (currently blinded), Hb increased by >1 g/dL, % reticulocytes decreased, and markers of hemolysis were improved after 14 days of treatment (compared to pre-treatment levels). Hematologic parameters returned to pre-treatment levels 4 to 7 days post-treatment (data not shown) without clinical AEs.
A median 1.2 g/dL Hb increase (range 0, 2.3) and a median 60% reticulocyte decrease (range −39%, −81%) over baseline were observed. The onset of the increase in Hb was rapid and continued to increase in most patients through the end of treatment, indicating the potential for additional improvement with extended dosing. […] A median 36% LDH decrease (range +18%, −57%) and a median 35% bilirubin decrease (range −7%, −63%) over baseline were observed, which is consistent with the hypothesis that Compound 1 improves RBC survival and reduces RBC turnover.

[6] = Phase 1 food effect cohort in healthy subjects; format: in vivo, human; conditions: 400 mg with and without food
Protocol: Four healthy SAD cohorts were evaluated at doses of 200, 400, 700, and 1000 mg, and four healthy MAD cohorts received 200 to 600 mg total daily doses for 14 days at QD or BID dosing (100 mg BID, 200 mg BID, 300 mg BID, and 400 mg QD). In the food effect (FE) cohort, 10 healthy subjects received 400 mg of Compound 1 QD with and without food. […] FIG. 22 illustrates plasma Compound 1 pharmacokinetics in healthy volunteers following a single dose. […] No significant changes in exposure were observed after 14 days of dosing. Compound 1 exposure under fed/fasted conditions was similar.

[7] = SCD MAD1, 300 mg once daily 14 days, of 7 patients

In the case of `O=C([C@H](CO)c1ccccc1)N1CC2=C(C1)CN(S(=O)(=O)c1cnc3c(c1)OCCO3)C2` (single isomer, unassigned) [Compound 1], the “Hb difference versus placebo” value ([1]; 24 h) is reported as roughly 0.9 g/dL, the “increase in Hb” value ([1]; 24 hours, range 0.3, 0.9) is reported as 0.5 g/dL and the “Max − Min (%), Mean” value ([2]; mean of replicates) is reported as less than 100%. For the same molecule, the “Max − Min (%)” value ([2]; single replicates) was <50% and <100%, the “Log D7.4” value (Log D7.4) was 1.09 and the cellular viability ([3]; 200 μM) was 90%. The cellular viability ([3]; concentrations ≤20 μM) was 100%, the “Max − Min (%), Mean” value ([4]; mean of replicates) was less than 100% and the “Max − Min (%)” value ([4]; single replicates) was <125% and <150% and <100% and <50%. The “patients with >1 g/dL increase in hemoglobin” value ([5]; SCD MAD1, 300 mg once daily 14 days) was 6/7, the “median Hb increase over baseline” value ([5]; SCD MAD1, 300 mg once daily 14 days (n = 7), range 0, 2.3) was 1.2 g/dL and the “patients with a decrease in reticulocytes” value [5, 7] was 7 and 7/7. The “patients with a decrease in total bilirubin” value [5, 7] was 7, the “median LDH decrease over baseline” value ([5]; SCD MAD1, 300 mg once daily 14 days, range +18%, −57%) was 36% and the “median bilirubin decrease over baseline” value ([5]; SCD MAD1, 300 mg once daily 14 days, range −7%, −63%) was 35%. The “median reticulocyte decrease over baseline” value ([5]; SCD MAD1, 300 mg once daily 14 days, range −39%, −81%) was 60%, the “increase in Hb compared with pre-dose on day 1” value ([5]; one SCD patient, 300 mg once daily, sustained through day 21, no hydroxyurea) was greater than 2 g/dL and the “exposure under fed/fasted conditions” value [6] was “similar”.
